# Test results: paper PMC6522510 (Nature Communications, 2019)
# Like-named read-outs stand apart in the source and are kept apart here.
# Tests used:
# Design in all cases: species or system AML cell lines (8); Primary HTS, single concentration about 10 uM, Cell Titer Glo viability; log10 luminescence, per cent inhibition relative to cycloheximide control
# Settings in all cases: 72 h, inhibitor
# CHRF288-11 = system: CHRF288-11
# CMK = system: CMK
# CMS = system: CMS
# M07e = system: M07e
# ML-2 = system: ML-2
# MOLM-13 = system: MOLM-13
# MV4-11 = system: MV4-11
# U937 = system: U937
# [1] = relative to cycloheximide control, log10 luminescence
Structure (SMILES),CHRF288-11 %inh (CHRF288-11; [1]),CMK %inh (CMK; [1]),CMS %inh (CMS; [1]),M07e %inh (M07e; [1]),ML-2 %inh (ML-2; [1]),MOLM-13 %inh (MOLM-13; [1]),MV4-11 %inh (MV4-11; [1]),U937 %inh (U937; [1]),other results
"C[C@]12CCC(=O)C=C1C=C[C@@H]1[C@@H]2CC[C@@]2(C)[C@H]1CC[C@@]21CCC(=O)O1 [SJ000286091-3, CANRENONE]",2.724%,0.4745%,0.603%,2.621%,3.227%,5.53%,4.82%,3.254%,–
"CCCCNc1cc(C(=O)O)cc(S(N)(=O)=O)c1Oc1ccccc1 [SJ000285893-7, BUMETANIDE]",–,–,–,–,–,–,–,–,"CHRF288-11 %inh (CHRF288-11; relative to cycloheximide control, log10 luminescence, CHRF288-11 %inh, 10 µM): -2.258%; CMK %inh (CMK; relative to cycloheximide control, log10 luminescence, CMK %inh, 10 µM): -6.073%; CMS %inh (CMS; relative to cycloheximide control, log10 luminescence, CMS %inh, 10 µM): 2.865%; M07e %inh (M07e; relative to cycloheximide control, log10 luminescence, M07e %inh, 10 µM): -2.011%; ML-2 %inh (ML-2; relative to cycloheximide control, log10 luminescence, ML-2 %inh, 10 µM): -1.959%; MOLM-13 %inh (MOLM-13; relative to cycloheximide control, log10 luminescence, MOLM-13 %inh, 10 µM): -2.419%; MV4-11 %inh (MV4-11; relative to cycloheximide control, log10 luminescence, MV4-11 %inh, 10 µM): -2.25%; U937 %inh (U937; relative to cycloheximide control, log10 luminescence, U937 %inh, 10 µM): 1.768%"
"Nc1ncnc2occ(-c3ccc(NC(=O)Nc4cccc(C(F)(F)F)c4)cc3)c12 [SJ000573045-1, CL210513-033A3]",45.6%,22.69%,11.5%,17.9%,6.046%,88.68%,73.96%,26.65%,–
"COc1cc(N2CCN(C(C)C)CC2)ccc1Nc1nc(Nc2ccc(F)cc2C(N)=O)c2cc[nH]c2n1 [SJ000573298-1, U22490/47/4]",127%,61.83%,47.53%,44.9%,34.55%,113.4%,68.67%,43.61%,–
"CCc1cccc(NC(=O)Nc2ccc(Oc3ccc4nc(NC(=O)OC)[nH]c4c3)cc2)c1 [SJ000573193-1, T229/79/1]",-2.602%,50%,-0.1127%,0.5293%,5.896%,61.84%,84.23%,3.761%,–
"COC(C)(C)CCCC(C)C/C=C/C(C)=C/C(=O)O (centres unmarked) [SJ000561041-1, METHOPRENE ACID]",30.54%,2.394%,-2.29%,-0.2291%,-0.2588%,-0.01315%,6.95%,1.555%,–
"C=CC1=C(C(=O)O)N2C(=O)[C@@H](NC(=O)/C(=N\OCC(=O)O)c3csc(N)n3)[C@H]2SC1 [SJ000287284-2, CEFIXIME]",-7.075%,0.8991%,-2.931%,-4.21%,-0.1874%,0.1743%,-3.36%,0.1666%,–
"Nc1nccc(C#Cc2cncnc2Nc2ccc(OCc3cccc(F)c3)c(Cl)c2)n1 [SJ000573310-1, U16767/158/1]",34.34%,11.36%,85.29%,42.98%,58.71%,9.977%,82.16%,80.64%,–
"CC(=O)OCC(CCn1cnc2cnc(N)nc21)COC(C)=O [SJ000286077-3, FAMCICLOVIR]",-0.6265%,3.857%,3.04%,-1.801%,-0.1732%,3.343%,1.495%,2.68%,–
"CC[C@H]1OC(=O)[C@H](C)[C@@H](O[C@H]2C[C@@](C)(OC)[C@@H](O)[C@H](C)O2)[C@H](C)[C@@H](O[C@@H]2O[C@H](C)C[C@H](N(C)C)[C@H]2O)[C@](C)(O)C[C@@H](C)[C@@H]2N[C@@H](COCCOC)O[C@H]([C@H]2C)[C@]1(C)O [SJ000286040-4, DIRITHROMYCIN]",–,–,–,–,–,–,–,–,CHRF288-11 %inh (CHRF288-11; 10 µM): 3.605%; CMK %inh (CMK; 10 µM): -6.058%; CMS %inh (CMS; 10 µM): -2.389%; M07e %inh (M07e; 10 µM): -2.158%; ML-2 %inh (ML-2; 10 µM): 0.363%; MOLM-13 %inh (MOLM-13; 10 µM): 5.018%; MV4-11 %inh (MV4-11; 10 µM): -1.547%; U937 %inh (U937; 10 µM): 3.436%
Cn1cc(C2=C(c3cn(CCO)c4ccccc34)C(=O)NC2=O)c2ccccc21 [SJ000581041-1],72.88%,80.06%,9.772%,13.99%,20.21%,54.73%,18.13%,14.77%,–
"Clc1ccc(CNc2nccc(-c3cnn4ncccc34)n2)cc1 [SJ000573234-1, U16767/129/1]",14.43%,3.942%,12.69%,7.216%,6.981%,8.357%,36.98%,20.4%,–
"CCC(=O)O[C@]1(C(=O)CCl)[C@@H](C)C[C@H]2[C@@H]3CCC4=CC(=O)C=C[C@]4(C)[C@@]3(F)[C@@H](O)C[C@@]21C [SJ000286006-4, CLOBETASOL PROPIONATE]",12.55%,12.78%,4.642%,3.893%,4.272%,8.361%,4.125%,16.72%,–
CC(=O)N[C@@H](Cc1ccc(OP(=O)(O)O)cc1)C(=O)N[C@H]1CCC(=O)N2CCC[C@@H](C(=O)NCc3ccc(Cl)cc3)N2C1=O [SJ000581056-1],0.8967%,-8.834%,0.4986%,-0.4557%,-0.961%,-1.276%,-2.949%,-1.499%,–
"Cn1cnc([N+](=O)[O-])c1Sc1ncnc2[nH]cnc12 [SJ000285241-8, AZATHIOPRINE]",14.99%,49.74%,0.5483%,7.374%,14.66%,36.41%,14.19%,-0.6587%,–
Cn1c(=O)c(Oc2ccc(F)cc2F)cc2cnc(NC3CCS(=O)(=O)CC3)nc21 [SJ000581062-1],0.18%,-3.198%,-1.245%,3.904%,1.685%,-0.445%,-0.9313%,4.309%,–
